Test results taken from US20240376109A1, “PYRAZOLO[1,5-A]PYRIMIDINE COMPOUND FOR THE TREATMENT OF DERMAL DISORDERS” (OTSUKA PHARMACEUTICAL CO., LTD., priority 2021, published 2024).
pIC50: −log10 of the molar value.

Target: T1, PAR2 (Homo sapiens, UniProt P55085)
T1 construct: HEK293 cell lines derived from human embryonic kidney cultured in a MEM culture medium; endogenous in cells; host or cells: HEK293
T1 sequence (P55085 26-397): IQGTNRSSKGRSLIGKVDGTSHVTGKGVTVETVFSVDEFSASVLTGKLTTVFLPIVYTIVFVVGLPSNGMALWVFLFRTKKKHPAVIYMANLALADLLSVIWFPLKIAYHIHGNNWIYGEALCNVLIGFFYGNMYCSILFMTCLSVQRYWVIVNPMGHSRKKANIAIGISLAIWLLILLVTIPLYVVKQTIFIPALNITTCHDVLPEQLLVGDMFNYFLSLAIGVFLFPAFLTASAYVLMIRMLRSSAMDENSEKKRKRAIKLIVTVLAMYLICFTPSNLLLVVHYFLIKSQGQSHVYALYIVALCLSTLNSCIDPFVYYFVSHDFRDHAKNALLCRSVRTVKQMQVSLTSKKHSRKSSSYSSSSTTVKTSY
Assay: Intracellular calcium concentration measurement (SLIGKV-NH2-induced calcium change, Fluo-8, FDSS/μCELL)
Format: cell-based
Conditions: HEK293 cells; SLIGKV-NH2 10 μM-induced intracellular calcium change; read-out: IC50

pIC50 | SMILES
7.13 | CCCc1cc(CC2CCCCC2)nc2cc(C(=O)N3CCCCCC3)nn12 [Example 9, azepan-1-yl(5-(cyclohexylmethyl)-7-propylpyrazolo[1,5-a]pyrimidin-2-yl)methanone]
7.62 | Cc1cc(CC2CCC(C)CC2)nc2cc(C(=O)N3CCCCCC3)nn12 (stereo not drawn) [Example 20]
6.53 | CC1CCC(Cc2cc(C(C)C)n3nc(C(=O)N4CCCCCC4)cc3n2)CC1 (stereo not drawn) [Example 21]
6.86 | CC(C)c1cc(C23CC4CC(CC(C4)C2)C3)nc2cc(C(=O)N3CCCCCC3)nn12 [Example 22]
7.52 | CC(C)(C)c1cc(C23CC4CC(CC(C4)C2)C3)nc2cc(C(=O)N3CCCCCC3)nn12 [Example 23]
8.05 | CC1(C)CCCCN1C(=O)c1cc2nc(C34CC5CC(CC(C5)C3)C4)cc(C(F)(F)F)n2n1 [Example 24]
7.31 | O=C(c1cc2nc(CC3CCCCC3)cc(C(F)(F)F)n2n1)N1CCCCCCC1 [Example 25]
7.10 | O=C(c1cc2nc(CC34CC5CC(CC(C5)C3)C4)cc(C(F)(F)F)n2n1)N1CCCCCC1 [Example 26]
6.86 | O=C(c1cc2nc(CC3CCCCC3)cc(C(F)(F)F)n2n1)N1CCCCCCCC1 [Example 27]
7.22 | CC(C)(C)c1cc(CC2CCCCC2)nc2cc(C(=O)N3CCCCCC3)nn12 [Example 28, azepan-1-yl-[7-tert-butyl-5-(cyclohexylmethyl)pyrazolo[1,5-a]pyrimidin-2-yl]methanone]
6.33 | O=C(c1cc2nc(CC3CCCCC3)cc(C3CCCC3)n2n1)N1CCCCCC1 [Example 29]
6.99 | CC1(C)CCCCN1C(=O)c1cc2nc(CC3CCCC3)cc(C(F)(F)F)n2n1 [Example 30]
7.09 | CC1(C)CCCCN1C(=O)c1cc2nc(CC3CCCCC3)cc(C(F)(F)F)n2n1 [Example 31]
7.29 | CCC(CC)c1cc(CC2CCCC2)nc2cc(C(=O)N3CCCCCC3)nn12 [Example 33]
6.58 | CC(C)c1cc(C2CCCCC2)nc2cc(C(=O)N3CCCCCC3)nn12 [Example 34]
6.89 | CCc1cc(CC2CCCCC2)nc2cc(C(=O)N3CCCCC3(C)C)nn12 [Example 35]
6.43 | O=C(c1cc2nc(CC3CCCCC3)cc(C3CC3)n2n1)N1CCCCCC1 [Example 36]
6.99 | CCC(C)c1cc(CC2CCCC2)nc2cc(C(=O)N3CCCCCC3)nn12 (stereo not drawn) [Example 38]
7.19 | CC(C)c1cc(CC2CCCCC2)nc2cc(C(=O)N3CCCCC3(C)C)nn12 [Example 39]
6.74 | CC(C)Cc1cc(CC2CCCCC2)nc2cc(C(=O)N3CCCCCC3)nn12 [Example 40]
6.61 | O=C(c1cc2nc(CC3CCCC3)cc(C(F)(F)F)n2n1)N1CCCCCCCC1 [Example 41]
7.40 | COC1CCN(C(=O)c2cc3nc(CC4CCCCC4)cc(C(C)C)n3n2)C(C)(C)C1 (stereo not drawn) [Example 42]
6.73 | CC(C)(C)c1cc(C2CCCCC2)nc2cc(C(=O)N3CCCCCC3)nn12 [Example 43]
6.68 | CCCCCc1cc(CC2CCCCC2)nc2cc(C(=O)N3CCCCCC3)nn12 [Example 44]

pIC50 | SMILES
6.20 | CC(C)c1cc(CC2CCC2)nc2cc(C(=O)N3CCCCCC3)nn12 [Example 45]
7.00 | CC(C)c1cc(CC2CCCCCC2)nc2cc(C(=O)N3CCCCCC3)nn12 [Example 46]
6.84 | CCC(C)c1cc(CC2CCCCC2)nc2cc(C(=O)N3CCCCCC3)nn12 (stereo not drawn) [Example 47]
6.98 | CCC(CC)c1cc(CC2CCCCC2)nc2cc(C(=O)N3CCCCCC3)nn12 [Example 48]
6.92 | CC(C)c1cc(CC2CCCCCC2)nc2cc(C(=O)N3CCCCC3(C)C)nn12 [Example 49]
7.37 | CC(C)c1cc(CC2CCCCC2)nc2cc(C(=O)N3CCSCC3(C)C)nn12 [Example 50]
6.68 | CC(C)c1cc(CC2CCCC2)nc2cc(C(=O)N3CCCCCCC3)nn12 [Example 51]
6.97 | CC(C)c1cc(CC2CCCCC2)nc2cc(C(=O)N3CCCCCCC3)nn12 [Example 52]
6.55 | O=C(c1cc2nc(C3CCC(F)(F)CC3)cc(C(F)(F)F)n2n1)N1CCCCCC1 [Example 56]
6.51 | CC1(c2cc(C(F)(F)F)n3nc(C(=O)N4CCCCCC4)cc3n2)CCCCC1 [Example 57]
6.33 | CCCCC1CCC(c2cc(C(F)(F)F)n3nc(C(=O)N4CCCCCC4)cc3n2)CC1 (stereo not drawn) [Example 58]
6.63 | O=C(c1cc2nc(C3CCCCCC3)cc(C(F)(F)F)n2n1)N1CCCCCC1 [Example 60]
7.02 | CC1(C)CCCCCN1C(=O)c1cc2nc(C34CC5CC(CC(C5)C3)C4)cc(C(F)(F)F)n2n1 [Example 61]
7.28 | CC1(C)COCCN1C(=O)c1cc2nc(C34CC5CC(CC(C5)C3)C4)cc(C(F)(F)F)n2n1 [Example 62]
7.92 | COC1CCN(C(=O)c2cc3nc(C45CC6CC(CC(C6)C4)C5)cc(C(F)(F)F)n3n2)C(C)(C)C1 (stereo not drawn) [Example 63]
7.77 | CC(C)c1cc(C23CC4CC(CC(C4)C2)C3)nc2cc(C(=O)N3CCC(O)CC3(C)C)nn12 (stereo not drawn) [Example 64]
6.62 | CC1(C)COCCN1C(=O)c1cc2nc(CC3CCCCC3)cc(C(F)(F)F)n2n1 [Example 66]
6.76 | CC1(C)CSCCN1C(=O)c1cc2nc(C3CCCC3)cc(C(F)(F)F)n2n1 [Example 67]
7.82 | CCC(CC)c1cc(CC2CCCC2)nc2cc(C(=O)N3CCCC(=O)C3(C)C)nn12 [Example 68]
7.48 | CCC(CC)c1cc(CC2CCCCC2)nc2cc(C(=O)N3CCC(O)CC3(C)C)nn12 (stereo not drawn) [Example 73]
6.41 | CC(C)c1cc(CCC2CCCCC2)nc2cc(C(=O)N3CCSCC3(C)C)nn12 [Example 74]
7.05 | CCC(C)c1cc(CC2CCCC2)nc2cc(C(=O)N3CCCCC3(C)C)nn12 (stereo not drawn) [Example 75]
6.92 | CC(C)c1cc(CC2CCCCC2)nc2cc(C(=O)N3CCOCC3(C)C)nn12 [Example 76]
6.56 | CC(F)(F)c1cc(CC2CCCCC2)nc2cc(C(=O)N3CCCCCC3)nn12 [Example 77]

pIC50 | SMILES
6.61 | CCC(C)c1cc(CC2CCCC2)nc2cc(C(=O)N3CCCCCCC3)nn12 (stereo not drawn) [Example 78]
6.84 | CCC(CC)c1cc(CC2CCCC2)nc2cc(C(=O)N3CCCCCCC3)nn12 [Example 79]
6.60 | CC(C)c1cc(CC2CCCC2)nc2cc(C(=O)N3CCC=CCC3)nn12 [Example 80]
6.61 | CC(C)c1cc(CC2CCCCC2)nc2cc(C(=O)N3CCC=CCC3)nn12 [Example 81]
6.56 | O=C(c1cc2nc(C3C4CC5CC(C4)CC3C5)cc(C(F)(F)F)n2n1)N1CCCCCC1 (stereo not drawn) [Example 84]
6.51 | O=C(c1cc2nc(C34CCC(CC3)CC4)cc(C(F)(F)F)n2n1)N1CCCCCC1 [Example 85]
6.47 | CC(C)c1cc(COC2CCCC2)nc2cc(C(=O)N3CCCCC3(C)C)nn12 [Example 86]
6.28 | CC(C)c1cc(CC2CCCCC2)nc2cc(C(=O)N3CCCCCO3)nn12 [Example 91]
6.63 | CC(C)c1cc(C(C)C2CCCCC2)nc2cc(C(=O)N3CCCCCC3)nn12 (stereo not drawn) [Example 93]
6.13 | O=C(c1cc2nc(N3CCCCC3)cc(C(F)(F)F)n2n1)N1CCCCCC1 [Example 95]
8.00 | CC1(C)C(=O)CCCN1C(=O)c1cc2nc(C34CC5CC(CC(C5)C3)C4)cc(C(F)(F)F)n2n1 [Example 96]
7.70 | CC(C)c1cc(C23CC4CC(CC(C4)C2)C3)nc2cc(C(=O)N3CCCC(O)C3(C)C)nn12 (stereo not drawn) [Example 97]
6.57 | CC(C)c1cc(CC2(C)CCCCC2)nc2cc(C(=O)N3CCCCCC3)nn12 [Example 98]
6.47 | Cc1cc(CC2CCCCC2)nc2cc(C(=O)N3CCCCC3(C)C)nn12 [Example 99]
7.64 | CC1(C)C(O)CCCN1C(=O)c1cc2nc(C34CC5CC(CC(C5)C3)C4)cc(C(F)(F)F)n2n1 (stereo not drawn) [Example 100]
7.15 | CC(C)(C)c1cc(C23CC4CC(CC(C4)C2)C3)nc2cc(C(=O)N3CCNCC3(C)C)nn12 [Example 101]
7.43 | CC1(C)CC(O)CCN1C(=O)c1cc2nc(C34CC5CC(CC(C5)C3)C4)cc(C(F)(F)F)n2n1 (stereo not drawn) [Example 102]
7.20 | CC(C)c1cc(CC2CCCC2)nc2cc(C(=O)N3CCCC(=O)C3(C)C)nn12 [Example 103]
7.34 | CCC(CC)c1cc(CC2CCCC2)nc2cc(C(=O)N3CCCC(O)C3(C)C)nn12 (stereo not drawn) [Example 104]
7.02 | CCC(CC)c1cc(CC2CCCC2)nc2cc(C(=O)N3CCC(O)CC3(C)C)nn12 (stereo not drawn) [Example 106]
7.17 | CC(C)c1cc(CC2CCCCC2)nc2cc(C(=O)N3CCCC(C)(O)C3(C)C)nn12 (stereo not drawn) [Example 107]
7.11 | CC1(C)CSCCN1C(=O)c1cc2nc(CC3CCCC3)cc(C(F)(F)F)n2n1 [Example 108]
7.07 | CC1CCC(Cc2cc(C(C)C)n3nc(C(=O)N4CCCCC4(C)C)cc3n2)CC1 (stereo not drawn) [Example 109]
6.60 | CC1(C)C(O)CCCN1C(=O)c1cc2nc(C3CCCCC3)cc(C(F)(F)F)n2n1 (stereo not drawn) [Example 111]

SMILES | pIC50
CCCCCCc1cc(CC2CCCCC2)nc2cc(C(=O)N3CCCCCC3)nn12 [Example 69] | 6.54

Same assay, conditions: IC50 (nM)

SMILES | IC50
O=C(c1cc2nc(NC34CC5CC(CC(C5)C3)C4)cc(C(F)(F)F)n2n1)N1CCCCCC1 [Example 82] | 76 nM
CCCN(CCC)c1cc(CC2CCCCC2)nc2cc(C(=O)N3CCCCCC3)nn12 [Example 89, azepan-1-yl-[5-(cyclohexylmethyl)-7-(dipropylamino)pyrazolo[1,5-a]pyrimidin-2-yl]methanone] | 243 nM
